This passage reports GI50 and TGI results from PubChem BioAssay (NCI).

Several values for one entry are separate records, joined by “and”; a condition that tells them apart may be missing. Equal values may be shown once.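 Grown in 96-well plates, cells were treated for 48 hours with each compound at five concentrations. Insufficient inhibition: endpoint recorded as highest concentration tested. GI50 is the concentration that inhibits growth by half. At the TGI there is no net growth.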

The test system of one assay is DU-145 prostate. Put plainly: DTP human tumour cell line panel, 48 h.
The term GI50 denotes the concentration giving 50% growth inhibition. In general, TGI refers to the concentration at which net growth stops. Read a high TGI as less potent growth arrest. Take `COc1ccc(-c2cn(-c3cc(OC)c(OC)c(OC)c3)c(SCc3ccccc3)n2)cc1OC`: the GI50 is > 100000 nM and the total growth inhibition concentration (TGI) was > 100 µM.

In the case of `COc1c(C)c2c(c(O)c1C/C=C(\C)CCC(=O)O)C(=O)OC2`, the GI50 was 570 nM and the TGI is > 100 µM.

For the compound `Cc1cc(O)c(C(C)C)cc1S(=O)(=O)O` (tested in a mixture with another compound), the GI50 is 363 nM and the TGI stood at 2.45 µM.

Regarding `COc1ccc(-c2nc(-c3nc4ccc(OC)cc4[nH]3)c3ccccn23)cc1`, the GI50 is 4110 nM and the TGI is > 100 µM.

Compound `COc1cc(C[C@H]2c3cc(OC)c(OC)cc3CCN2C)c(Oc2cc3c(cc2OC)-c2c(OC)c(OC)cc4c2[C@H](C3)N(C)CC4)cc1OC` came in with a concentration for total growth inhibition (TGI) of 39.6 µM.

As to `COc1cc(C(=O)O[C@H](C(=O)NCCCCCNC(=O)[C@@H](OC(=O)c2cc(OC)cc3c(C)cccc23)[C@]2(C)CO2)[C@]2(C)CO2)c2cccc(C)c2c1`, the concentration for 50% growth inhibition (GI50) is 122 nM.

A further assay concerns SK-MEL-5 melanoma. Put plainly: DTP human tumour cell line panel, 48 h.
Regarding `COc1ccc(-c2cn(-c3cc(OC)c(OC)c(OC)c3)c(SCc3ccccc3)n2)cc1OC`, the GI50 was 68200 nM and the TGI was > 100 µM.

`COc1c(C)c2c(c(O)c1C/C=C(\C)CCC(=O)O)C(=O)OC2`: the GI50 was 411 nM and the TGI is > 100 µM.

For `Cc1cc(O)c(C(C)C)cc1S(=O)(=O)O` (tested in a mixture with another compound), the GI50 was 394 nM and the TGI is 1.44 µM.

Take `COc1ccc(-c2nc(-c3nc4ccc(OC)cc4[nH]3)c3ccccn23)cc1`: the GI50 was 1600 nM and the TGI stood at 4.41 µM.

With `COc1cc(C[C@H]2c3cc(OC)c(OC)cc3CCN2C)c(Oc2cc3c(cc2OC)-c2c(OC)c(OC)cc4c2[C@H](C3)N(C)CC4)cc1OC`, the GI50 was 1970 nM; the TGI was 11.1 µM and 3.58 µM.

For the compound `COc1cc(C(=O)O[C@H](C(=O)NCCCCCNC(=O)[C@@H](OC(=O)c2cc(OC)cc3c(C)cccc23)[C@]2(C)CO2)[C@]2(C)CO2)c2cccc(C)c2c1`, the GI50 was 166 nM and the TGI was 0.501 µM.

Another assay has as its system SNB-75 CNS. The experiment in a line: DTP human tumour cell line panel, 48 h.
Take `COc1ccc(-c2cn(-c3cc(OC)c(OC)c(OC)c3)c(SCc3ccccc3)n2)cc1OC`: the GI50 was 82.3 µM and the TGI was > 100 µM.

Turning to `COc1c(C)c2c(c(O)c1C/C=C(\C)CCC(=O)O)C(=O)OC2`, the GI50 is 0.938 µM and the TGI is > 100 µM.

`Cc1cc(O)c(C(C)C)cc1S(=O)(=O)O` (tested in a mixture with another compound): the GI50 was 0.378 µM.

As for `COc1ccc(-c2nc(-c3nc4ccc(OC)cc4[nH]3)c3ccccn23)cc1`, the GI50 was 24 µM and the TGI was > 100 µM.

Take `COc1cc(C[C@H]2c3cc(OC)c(OC)cc3CCN2C)c(Oc2cc3c(cc2OC)-c2c(OC)c(OC)cc4c2[C@H](C3)N(C)CC4)cc1OC`: the GI50 is 9.19 µM; the TGI is 15.3 µM and 24.3 µM.

For `COc1cc(C(=O)O[C@H](C(=O)NCCCCCNC(=O)[C@@H](OC(=O)c2cc(OC)cc3c(C)cccc23)[C@]2(C)CO2)[C@]2(C)CO2)c2cccc(C)c2c1`, the GI50 was 0.911 µM and the TGI was found to be 3.43 µM.

The next assay deals with HOP-62 NSCLC. Put plainly: DTP human tumour cell line panel, 48 h.
Take `COc1ccc(-c2cn(-c3cc(OC)c(OC)c(OC)c3)c(SCc3ccccc3)n2)cc1OC`: the GI50 was > 100000 nM and the TGI was > 100 µM.

With `COc1c(C)c2c(c(O)c1C/C=C(\C)CCC(=O)O)C(=O)OC2`, the GI50 is 512 nM and the TGI is > 100 µM.

Take `Cc1cc(O)c(C(C)C)cc1S(=O)(=O)O` (tested in a mixture with another compound): the GI50 is 442 nM.

Take `COc1ccc(-c2nc(-c3nc4ccc(OC)cc4[nH]3)c3ccccn23)cc1`: the GI50 is 5070 nM and the TGI is > 100 µM.

`COc1cc(C[C@H]2c3cc(OC)c(OC)cc3CCN2C)c(Oc2cc3c(cc2OC)-c2c(OC)c(OC)cc4c2[C@H](C3)N(C)CC4)cc1OC`: the GI50 is 19900 nM; the concentration for total growth inhibition (TGI) was 24 µM and 35.6 µM.

For the compound `COc1cc(C(=O)O[C@H](C(=O)NCCCCCNC(=O)[C@@H](OC(=O)c2cc(OC)cc3c(C)cccc23)[C@]2(C)CO2)[C@]2(C)CO2)c2cccc(C)c2c1`, the GI50 is < 10 nM and the total growth inhibition concentration (TGI) turned out to be 0.157 µM.

The subject of a further assay is RXF 393 renal. The experiment in a line: DTP human tumour cell line panel, 48 h.
With `COc1ccc(-c2cn(-c3cc(OC)c(OC)c(OC)c3)c(SCc3ccccc3)n2)cc1OC`, the GI50 was > 100 µM and the TGI is > 100 µM.

As to `COc1c(C)c2c(c(O)c1C/C=C(\C)CCC(=O)O)C(=O)OC2`, the GI50 was 0.604 µM and the TGI was > 100 µM.

In the case of `Cc1cc(O)c(C(C)C)cc1S(=O)(=O)O` (tested in a mixture with another compound), the GI50 is 0.213 µM.

With `COc1ccc(-c2nc(-c3nc4ccc(OC)cc4[nH]3)c3ccccn23)cc1`, the GI50 is 24.2 µM and the TGI was > 100 µM.

Regarding `COc1cc(C[C@H]2c3cc(OC)c(OC)cc3CCN2C)c(Oc2cc3c(cc2OC)-c2c(OC)c(OC)cc4c2[C@H](C3)N(C)CC4)cc1OC`, the GI50 is 8.62 µM; the TGI was 7.35 µM and 21.3 µM.

`COc1cc(C(=O)O[C@H](C(=O)NCCCCCNC(=O)[C@@H](OC(=O)c2cc(OC)cc3c(C)cccc23)[C@]2(C)CO2)[C@]2(C)CO2)c2cccc(C)c2c1`: the GI50 was < 0.01 µM and the TGI came to 0.025 µM.
